In this experiment the target is human F508del-CFTR (Homo sapiens, UniProt P13569, DEL508-508). Briefly: F508del-CFTR cell surface expression (corrector activity), DiscoveRx ß-galactosidase complementation chemiluminescence assay in recombinant U2OS cell line.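 For all read-outs here: U2OS cells co-expressing ProLink-tagged F508del-CFTR and a membrane-anchored enzyme acceptor, where more surface CFTR restores β-galactosidase activity measured by chemiluminescence.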 The settings on record: for EC50: EC50, F508del-CFTR cell surface expression, U2OS cells, 16h compound incubation, geomean values; for Emax: U2OS, in relation to Emax of corrector lumacaftor (=100%), arithmetic mean values.

SMILES strings stand for the structures.

Chain of human F508del-CFTR (P13569 with tags, fused parts or gaps DEL508-508): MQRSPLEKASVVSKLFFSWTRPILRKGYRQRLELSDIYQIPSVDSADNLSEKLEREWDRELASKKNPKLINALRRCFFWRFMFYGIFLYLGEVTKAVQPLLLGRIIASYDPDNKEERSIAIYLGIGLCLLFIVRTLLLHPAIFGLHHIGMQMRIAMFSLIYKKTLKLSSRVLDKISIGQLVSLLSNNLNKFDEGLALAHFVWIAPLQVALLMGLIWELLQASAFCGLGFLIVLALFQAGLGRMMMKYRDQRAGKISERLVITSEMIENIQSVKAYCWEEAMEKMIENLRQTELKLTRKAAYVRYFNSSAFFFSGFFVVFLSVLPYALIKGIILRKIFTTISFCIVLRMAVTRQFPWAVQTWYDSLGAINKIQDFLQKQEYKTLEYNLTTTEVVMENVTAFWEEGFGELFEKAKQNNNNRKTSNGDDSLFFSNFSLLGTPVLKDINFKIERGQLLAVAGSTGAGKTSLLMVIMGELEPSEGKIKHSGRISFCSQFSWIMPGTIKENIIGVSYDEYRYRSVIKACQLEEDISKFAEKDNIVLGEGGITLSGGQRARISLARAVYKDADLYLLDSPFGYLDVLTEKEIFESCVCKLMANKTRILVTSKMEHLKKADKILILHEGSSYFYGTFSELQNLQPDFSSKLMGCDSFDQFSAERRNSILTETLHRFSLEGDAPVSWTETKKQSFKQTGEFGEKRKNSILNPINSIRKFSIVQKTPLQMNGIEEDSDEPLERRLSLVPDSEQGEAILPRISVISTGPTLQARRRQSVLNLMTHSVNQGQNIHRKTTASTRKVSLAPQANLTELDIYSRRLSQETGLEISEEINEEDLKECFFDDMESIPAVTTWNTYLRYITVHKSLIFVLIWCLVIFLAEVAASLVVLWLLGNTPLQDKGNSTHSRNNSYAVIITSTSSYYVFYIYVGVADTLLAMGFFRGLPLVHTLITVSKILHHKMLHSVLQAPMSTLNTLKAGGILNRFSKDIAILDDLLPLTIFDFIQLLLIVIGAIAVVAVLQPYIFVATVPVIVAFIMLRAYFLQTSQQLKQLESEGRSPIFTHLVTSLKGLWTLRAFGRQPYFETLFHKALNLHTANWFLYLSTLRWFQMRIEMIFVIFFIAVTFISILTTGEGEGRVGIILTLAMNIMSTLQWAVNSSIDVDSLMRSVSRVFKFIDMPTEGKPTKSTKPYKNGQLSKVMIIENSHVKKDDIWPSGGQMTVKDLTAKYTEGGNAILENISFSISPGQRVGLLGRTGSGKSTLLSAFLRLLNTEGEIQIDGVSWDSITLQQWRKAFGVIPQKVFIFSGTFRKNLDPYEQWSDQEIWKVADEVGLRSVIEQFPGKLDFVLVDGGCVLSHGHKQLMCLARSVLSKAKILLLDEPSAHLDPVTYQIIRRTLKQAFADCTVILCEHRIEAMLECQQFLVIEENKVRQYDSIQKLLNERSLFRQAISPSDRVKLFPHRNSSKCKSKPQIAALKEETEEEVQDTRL

Broadly, the EC50 is the midpoint of the concentration-response curve. By Emax is commonly meant the greatest response seen or fitted, relative to the assay's reference. Take `COc1nc(C)cc2c1C(=O)N[C@H](C(=O)NCCc1noc(C3CC3)n1)CC(=O)N(C)[C@@H](CC(C)C)C(=O)N1CCCC[C@@H]1C(=O)N[C@H](Cc1ccccc1)CO2` [Example 567, (7S,11S,17aR,20R)-20-benzyl-N-(2-(5-cyclopropyl-1,2,4-oxadiazol-3-yl)ethyl)-11-isobutyl-4-methoxy-2,10-dimethyl-5,9,12,18-tetraoxo-5,6,7,8,9,10,11,12,15,16,17,17a,18,19,20,21-hexadecahydro-14H-dipyrido[2,1-f:3′,4′-p][1]oxa[4,7,10,14]tetraazacycloheptadecine-7-carboxamide]: the EC50 is 0.384 µM and the Emax amounted to 307%.
Turning to `COc1nc(C)cc2c1C(=O)N[C@H](C(=O)NCCc1cc(C(F)(F)F)no1)CC(=O)N(C)[C@@H](CC(C)C)C(=O)N1CCCC[C@@H]1C(=O)N[C@H](Cc1ccccc1)CO2` [Example 568, (7S,11S,17aR,20R)-20-benzyl-11-isobutyl-4-methoxy-2,10-dimethyl-5,9,12,18-tetraoxo-N-(2-(3-(trifluoromethyl)isoxazol-5-yl)ethyl)-5,6,7,8,9,10,11,12,15,16,17,17a,18,19,20,21-hexadecahydro-14H-dipyrido[2,1-f:3′,4′-p][1]oxa[4,7,10,14]tetraazacycloheptadecine-7-carboxamide], the EC50 worked out at 0.391 µM and the Emax came to 238%.
The corresponding values for `COc1nccc2c1C(=O)N[C@H](C(=O)NCCc1cc(C)no1)CC(=O)N(C)[C@@H](CC(C)C)C(=O)N1CCN(CC(C)C)C[C@@H]1C(=O)N[C@H](Cc1ccccc1)CO2` [Example 570, (7S,11S,20R,22aR)-20-benzyl-2,7-diisobutyl-14-methoxy-8-methyl-N-(2-(3-methylisoxazol-5-yl)ethyl)-6,9,13,22-tetraoxo-1,3,4,6,7,8,9,10,11,12,13,19,20,21,22,22a-hexadecahydro-2H-pyrazino[2,1-f]pyrido[3,4-p][1]oxa[4,7,10,14]tetraazacycloheptadecine-11-carboxamide] are 0.374 µM and 323%.
Taken in the same sequence, the figures for `COc1nccc2c1C(=O)N[C@H](C(=O)NCCc1noc(C3CC3)n1)CC(=O)N(C)[C@@H](CC(C)C)C(=O)N(C)[C@H](CCc1nc(-c3ccccc3)no1)C(=O)N[C@H](Cc1ccccc1)CO2` [Example 571, (3R,6R,9S,13S)-3-benzyl-N-(2-(5-cyclopropyl-1,2,4-oxadiazol-3-yl)ethyl)-9-isobutyl-16-methoxy-7,10-dimethyl-5,8,11,15-tetraoxo-6-(2-(3-phenyl-1,2,4-oxadiazol-5-yl)ethyl)-2,3,4,5,6,7,8,9,10,11,12,13,14,15-tetradecahydropyrido[3,4-p][1]oxa[4,7,10,14]tetraazacycloheptadecine-13-carboxamide] were 0.047 µM and 347%.
Regarding `COc1cccc(CCNC(=O)[C@@H]2CC(=O)N(C)[C@@H](CC(C)C)C(=O)N(C)[C@@H](C)C(=O)N[C@H](Cc3ccccc3)COc3cnc4ccccc4c3C(=O)N2)c1` [Example 572, (3S,7S,10S,13R)-13-benzyl-7-isobutyl-N-(3-methoxyphenethyl)-6,9,10-trimethyl-1,5,8,11-tetraoxo-1,2,3,4,5,6,7,8,9,10,11,12,13,14-tetradecahydro-[1]oxa[4,7,10,14]tetraazacycloheptadecino[17,16-c]quinoline-3-carboxamide], the 50% effective concentration (EC50) amounted to 0.701 µM and the maximum response (Emax) was found to be 200%.
The corresponding values for `Cc1cc(CCNC(=O)[C@@H]2CC(=O)N(C)[C@@H](CC(C)C)C(=O)N(C)[C@H](C)C(=O)N[C@H](Cc3ccccc3)COc3cnc4ccccc4c3C(=O)N2)on1` [Example 573, (3S,7S,10R,13R)-13-benzyl-7-isobutyl-6,9,10-trimethyl-N-(2-(3-methylisoxazol-5-yl)ethyl)-1,5,8,11-tetraoxo-1,2,3,4,5,6,7,8,9,10,11,12,13,14-tetradecahydro-[1]oxa[4,7,10,14]tetraazacycloheptadecino[17,16-c]quinoline-3-carboxamide] are 0.423 µM and 306%.
As for `CC(C)C[C@H]1C(=O)N(C)[C@H](C)C(=O)N[C@H](Cc2ccccc2)COc2cnc3ccccc3c2C(=O)N[C@H](C(=O)NCCc2cc(C3CC3)no2)CC(=O)N1C` [Example 574, (3S,7S,10R,13R)-13-benzyl-N-(2-(3-cyclopropylisoxazol-5-yl)ethyl)-7-isobutyl-6,9,10-trimethyl-1,5,8,11-tetraoxo-1,2,3,4,5,6,7,8,9,10,11,12,13,14-tetradecahydro-[1]oxa[4,7,10,14]tetraazacycloheptadecino[17,16-c]quinoline-3-carboxamide], the EC50 was found to be 0.308 µM and the Emax came out at 319%.
The corresponding values for `COc1nccc2c1C(=O)N[C@H](C(=O)NCCc1noc(C3CC3)n1)CC(=O)N(C)[C@@H](CC(C)C)C(=O)N(C)[C@@H](CCc1nc(-c3ccccc3)no1)C(=O)N[C@H](Cc1ccccc1)CO2` [Example 577, (3R,6S,9S,13S)-3-benzyl-N-(2-(5-cyclopropyl-1,2,4-oxadiazol-3-yl)ethyl)-9-isobutyl-16-methoxy-7,10-dimethyl-5,8,11,15-tetraoxo-6-(2-(3-phenyl-1,2,4-oxadiazol-5-yl)ethyl)-2,3,4,5,6,7,8,9,10,11,12,13,14,15-tetradecahydropyrido[3,4-p][1]oxa[4,7,10,14]tetraazacycloheptadecine-13-carboxamide] are 0.6 µM and 268%.
In the case of `Cc1cc(CCNC(=O)[C@@H]2CC(=O)N(C)[C@@H](CC(C)C)C(=O)N(C)[C@H](CCOCc3ccccc3)C(=O)N[C@H](Cc3ccccc3)COc3cnc4ccccc4c3C(=O)N2)on1` [Example 578, (3S,7S,10R,13R)-13-benzyl-10-(2-(benzyloxy)ethyl)-7-isobutyl-6,9-dimethyl-N-(2-(3-methylisoxazol-5-yl)ethyl)-1,5,8,11-tetraoxo-1,2,3,4,5,6,7,8,9,10,11,12,13,14-tetradecahydro-[1]oxa[4,7,10,14]tetraazacycloheptadecino[17,16-c]quinoline-3-carboxamide], the EC50 stood at 0.053 µM and the maximum response (Emax) came to 319%.
Turning to `Cc1cc(CCNC(=O)[C@@H]2CC(=O)N(C)[C@@H](CC(C)C)C(=O)N(C)[C@@H](CCOCc3ccccc3)C(=O)N[C@H](Cc3ccccc3)COc3cnc4ccccc4c3C(=O)N2)on1` [Example 579, (3S,7S,10S,13R)-13-benzyl-10-(2-(benzyloxy)ethyl)-7-isobutyl-6,9-dimethyl-N-(2-(3-methylisoxazol-5-yl)ethyl)-1,5,8,11-tetraoxo-1,2,3,4,5,6,7,8,9,10,11,12,13,14-tetradecahydro-[1]oxa[4,7,10,14]tetraazacycloheptadecino[17,16-c]quinoline-3-carboxamide], the EC50 is 0.399 µM and the Emax stood at 131%.
Taken in the same sequence, the figures for `COc1cc(CCNC(=O)[C@@H]2CC(=O)N(C)[C@@H](CC(C)C)C(=O)N3CCC4(CC4)C[C@@H]3C(=O)N[C@H](Cc3ccccc3)COc3cc(C)nc(OC)c3C(=O)N2)on1` [Example 580, (7′S,11′S,17a′R,20′R)-20′-benzyl-11′-isobutyl-4′-methoxy-N-(2-(3-methoxyisoxazol-5-yl)ethyl)-2′,10′-dimethyl-5′,9′,12′,18′-tetraoxo-5′,6′,7′,8′,9′,10′,11′,12′,14′,15′,17′,17a′,18′,19′,20′,21′-hexadecahydrospiro[cyclopropane-1,16′-dipyrido[2,1-f:3′,4′-p][1]oxa[4,7,10,14]tetraazacycloheptadecine]-7′-carboxamide] were 0.198 µM and 319%.
`[2H]C([2H])([2H])Oc1nc(C)cc2c1C(=O)N[C@H](C(=O)NCCc1cc(OC)no1)CC(=O)N(C)[C@@H](CC(C)C)C(=O)N1CCCC[C@@H]1C(=O)N[C@H](Cc1ccccc1)CO2` [Example 581, (7S,11S,17aR,20R)-20-benzyl-11-isobutyl-4-(methoxy-d3)-N-(2-(3-methoxyisoxazol-5-yl)ethyl)-2,10-dimethyl-5,9,12,18-tetraoxo-5,6,7,8,9,10,11,12,15,16,17,17a,18,19,20,21-hexadecahydro-14H-dipyrido[2,1-f:3′,4′-p][1]oxa[4,7,10,14]tetraazacycloheptadecine-7-carboxamide]: the EC50 was determined as 0.3 µM and the Emax is 303%.
Taken in the same sequence, the figures for `COc1cc(CCNC(=O)[C@@H]2CC(=O)N(C)[C@@H](CC(C)C)C(=O)N(CCC3CCCCC3)CC(=O)N[C@H](Cc3ccccc3)COc3ccnc(OC)c3C(=O)N2)on1` [Example 582, (3R,9S,13S)-3-benzyl-7-(2-cyclohexylethyl)-9-isobutyl-16-methoxy-N-(2-(3-methoxyisoxazol-5-yl)ethyl)-10-methyl-5,8,11,15-tetraoxo-2,3,4,5,6,7,8,9,10,11,12,13,14,15-tetradecahydropyrido[3,4-p][1]oxa[4,7,10,14]tetraazacycloheptadecine-13-carboxamide] were 0.116 µM and 279%.
For `Cc1ccc2c(c1)OC[C@@H](Cc1ccccc1)NC(=O)CN(C)C(=O)[C@H](CC(C)C)N(C)C(=O)C[C@@H](C(=O)NCCc1ccc3c(c1)OCO3)NC2=O` [Example 583, (3R,9S,13S)-N-(2-(benzo[d][1,3]dioxol-5-yl)ethyl)-3-benzyl-9-isobutyl-7,10,18-trimethyl-5,8,11,15-tetraoxo-2,3,4,5,6,7,8,9,10,11,12,13,14,15-tetradecahydrobenzo[p][1]oxa[4,7,10,14]tetraazacycloheptadecine-13-carboxamide], the EC50 is 0.339 µM and the Emax is 90%.
The corresponding values for `COc1cccc(CCNC(=O)[C@@H]2CC(=O)N(C)[C@@H](CC(C)C)C(=O)N3CC[C@@H](C3)C(=O)N[C@H](Cc3ccccc3)COc3ccc(OC)cc3C(=O)N2)c1` [Example 584, (13S,4R,10S,14S)-4-benzyl-14-isobutyl-74-methoxy-N-(3-methoxyphenethyl)-13-methyl-2,8,12,15-tetraoxo-6-oxa-3,9,13-triaza-1(3,1)-pyrrolidina-7(1,2)-benzenacyclopentadecaphane-10-carboxamide] are 0.575 µM and 156%.

Source of the values: patent US20240208992A1, “MACROCYCLES AS CFTR MODULATORS” (Idorsia Pharmaceuticals Ltd, priority 2021, published 2024).
